In BindingDB's records for doi:10.1124/jpet.301.1.37 (National Institutes of Health, 2002):
Where “and” joins values, the source holds several entries; their conditions need not be identical. Equal entries are not always repeated.

Legend:
VIP peptides [1] = target: T1, VIP peptides (Cavia porcellus, UniProt P04566)
T1 sequence (P04566 whole entry): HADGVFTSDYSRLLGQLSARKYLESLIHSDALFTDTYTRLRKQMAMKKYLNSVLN

VIP peptides [2] = target: T2, VIP peptides (Homo sapiens, UniProt P01282)
T2 sequence (P01282 whole entry): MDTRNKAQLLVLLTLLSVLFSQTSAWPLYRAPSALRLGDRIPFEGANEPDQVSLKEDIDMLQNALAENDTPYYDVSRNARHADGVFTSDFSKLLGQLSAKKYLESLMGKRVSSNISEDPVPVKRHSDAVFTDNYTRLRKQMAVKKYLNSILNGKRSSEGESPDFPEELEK

Compound | Ki (VIP peptides [1]) | Ki (VIP peptides [2])
H-HSDAVFTDNYTRLRAQMAVKKYLNSILN-NH2 [VIP Ala15] | 1.9 nM | 2.1 nM and 16.2 nM and 15.9 nM
CC[C@H](C)[C@H](NC(=O)[C@H](CO)NC(=O)[C@H](CC(N)=O)NC(=O)[C@H](CC(C)C)NC(=O)[C@H](Cc1ccc(O)cc1)NC(=O)[C@H](CCCCN)NC(=O)[C@@H](CCCCN)NC(=O)[C@@H](NC(=O)[C@H](C)NC(=O)[C@H](CCSC)NC(=O)[C@H](CCC(N)=O)NC(=O)[C@H](CCCCN)NC(=O)[C@H](CCCN=C(N)N)NC(=O)[C@H](CC(C)C)NC(=O)[C@H](CCCN=C(N)N)NC(=O)[C@@H](NC(=O)[C@H](Cc1ccc(O)cc1)NC(=O)[C@H](CC(N)=O)NC(=O)[C@H](CC(=O)O)NC(=O)[C@@H](NC(=O)[C@H](Cc1ccccc1)NC(=O)[C@@H](NC(=O)[C@H](C)NC(=O)[C@H](CC(=O)O)NC(=O)[C@H](CO)NC(=O)[C@@H](N)Cc1cnc[nH]1)C(C)C)[C@@H](C)O)[C@@H](C)O)C(C)C)C(=O)N[C@@H](CC(C)C)C(=O)N[C@@H](CC(N)=O)C(N)=O [VIP [D-Lys20]] | 17.3 nM | 4.2 nM and 22.4 nM and 16.9 nM
CC[C@H](C)[C@H](NC(=O)[C@H](CO)NC(=O)[C@H](CC(N)=O)NC(=O)[C@H](CC(C)C)NC(=O)[C@H](Cc1ccc(O)cc1)NC(=O)[C@H](CCCCN)NC(=O)[C@H](CCCCN)NC(=O)[C@@H](NC(=O)[C@@H](C)NC(=O)[C@H](CCSC)NC(=O)[C@H](CCC(N)=O)NC(=O)[C@H](CCCCN)NC(=O)[C@H](CCCN=C(N)N)NC(=O)[C@H](CC(C)C)NC(=O)[C@H](CCCN=C(N)N)NC(=O)[C@@H](NC(=O)[C@H](Cc1ccc(O)cc1)NC(=O)[C@H](CC(N)=O)NC(=O)[C@H](CC(=O)O)NC(=O)[C@@H](NC(=O)[C@H](Cc1ccccc1)NC(=O)[C@@H](NC(=O)[C@H](C)NC(=O)[C@H](CC(=O)O)NC(=O)[C@H](CO)NC(=O)[C@@H](N)Cc1cnc[nH]1)C(C)C)[C@@H](C)O)[C@@H](C)O)C(C)C)C(=O)N[C@@H](CC(C)C)C(=O)N[C@@H](CC(N)=O)C(N)=O [VIP [D-Ala18]] | 17.8 nM | 3.5 nM and 15.4 nM and 12.1 nM
CC[C@H](C)[C@H](NC(=O)[C@H](CO)NC(=O)[C@H](CC(N)=O)NC(=O)[C@H](CC(C)C)NC(=O)[C@H](Cc1ccc(O)cc1)NC(=O)[C@H](CCCCN)NC(=O)[C@H](CCCCN)NC(=O)[C@@H](NC(=O)[C@H](C)NC(=O)[C@@H](CCSC)NC(=O)[C@H](CCC(N)=O)NC(=O)[C@H](CCCCN)NC(=O)[C@H](CCCN=C(N)N)NC(=O)[C@H](CC(C)C)NC(=O)[C@H](CCCN=C(N)N)NC(=O)C(NC(=O)[C@H](Cc1ccc(O)cc1)NC(=O)[C@H](CC(N)=O)NC(=O)[C@H](CC(=O)O)NC(=O)C(NC(=O)[C@H](Cc1ccccc1)NC(=O)[C@@H](NC(=O)[C@H](C)NC(=O)[C@H](CC(=O)O)NC(=O)[C@H](CO)NC(=O)[C@@H](N)Cc1cnc[nH]1)C(C)C)[C@@H](C)O)[C@@H](C)O)C(C)C)C(=O)N[C@@H](CC(C)C)C(=O)N[C@@H](CC(N)=O)C(N)=O (stereo partly drawn) [VIP [D-Met17]] |  | 6.7 nM and 29.5 nM and 36.3 nM
H-HSDAVFTDNATRLRKQMAVKKYLNSILN-NH2 [VIP Ala10] | 54.9 nM | 61.7 nM and 56.2 nM and 44.7 nM
CC[C@H](C)[C@H](NC(=O)[C@H](CO)NC(=O)[C@H](CC(N)=O)NC(=O)[C@H](CC(C)C)NC(=O)[C@H](Cc1ccc(O)cc1)NC(=O)[C@@H](CCCCN)NC(=O)[C@H](CCCCN)NC(=O)[C@@H](NC(=O)[C@H](C)NC(=O)[C@H](CCSC)NC(=O)[C@H](CCC(N)=O)NC(=O)[C@H](CCCCN)NC(=O)[C@H](CCCN=C(N)N)NC(=O)[C@H](CC(C)C)NC(=O)[C@H](CCCN=C(N)N)NC(=O)[C@@H](NC(=O)[C@H](Cc1ccc(O)cc1)NC(=O)[C@H](CC(N)=O)NC(=O)[C@H](CC(=O)O)NC(=O)[C@@H](NC(=O)[C@H](Cc1ccccc1)NC(=O)[C@@H](NC(=O)[C@H](C)NC(=O)[C@H](CC(=O)O)NC(=O)[C@H](CO)NC(=O)[C@@H](N)Cc1cnc[nH]1)C(C)C)[C@@H](C)O)[C@@H](C)O)C(C)C)C(=O)N[C@@H](CC(C)C)C(=O)N[C@@H](CC(N)=O)C(N)=O [VIP [D-Lys21]] | 100 nM | 93.3 nM and 118 nM and 105 nM
H-HSDAVFTDNYTRLRKQMAVKKYLNSALN-NH2 [VIP Ala26] | 4.3 nM and 12.3 nM | 
CC[C@H](C)[C@H](NC(=O)[C@@H](CO)NC(=O)[C@H](CC(N)=O)NC(=O)[C@H](CC(C)C)NC(=O)[C@H](Cc1ccc(O)cc1)NC(=O)[C@H](CCCCN)NC(=O)[C@H](CCCCN)NC(=O)[C@@H](NC(=O)[C@H](C)NC(=O)[C@H](CCSC)NC(=O)[C@H](CCC(N)=O)NC(=O)[C@H](CCCCN)NC(=O)[C@H](CCCN=C(N)N)NC(=O)[C@H](CC(C)C)NC(=O)[C@H](CCCN=C(N)N)NC(=O)[C@@H](NC(=O)[C@H](Cc1ccc(O)cc1)NC(=O)[C@H](CC(N)=O)NC(=O)[C@H](CC(=O)O)NC(=O)[C@@H](NC(=O)[C@H](Cc1ccccc1)NC(=O)[C@@H](NC(=O)[C@H](C)NC(=O)[C@H](CC(=O)O)NC(=O)[C@H](CO)NC(=O)[C@@H](N)Cc1cnc[nH]1)C(C)C)[C@@H](C)O)[C@@H](C)O)C(C)C)C(=O)N[C@@H](CC(C)C)C(=O)N[C@@H](CC(N)=O)C(N)=O [VIP [D-Ser25]] | 43.6 nM | 
CC[C@H](C)[C@H](NC(=O)[C@H](CO)NC(=O)[C@H](CC(N)=O)NC(=O)[C@H](CC(C)C)NC(=O)[C@H](Cc1ccc(O)cc1)NC(=O)[C@H](CCCCN)NC(=O)[C@H](CCCCN)NC(=O)[C@@H](NC(=O)[C@H](C)NC(=O)[C@H](CCSC)NC(=O)[C@H](CCC(N)=O)NC(=O)[C@H](CCCCN)NC(=O)[C@H](CCCN=C(N)N)NC(=O)[C@H](CC(C)C)NC(=O)[C@H](CCCN=C(N)N)NC(=O)[C@@H](NC(=O)[C@H](Cc1ccc(O)cc1)NC(=O)[C@H](CC(N)=O)NC(=O)[C@H](CC(=O)O)NC(=O)[C@@H](NC(=O)[C@H](Cc1ccccc1)NC(=O)[C@H](NC(=O)[C@H](C)NC(=O)[C@H](CC(=O)O)NC(=O)[C@H](CO)NC(=O)[C@@H](N)Cc1cnc[nH]1)C(C)C)[C@@H](C)O)[C@@H](C)O)C(C)C)C(=O)N[C@@H](CC(C)C)C(=O)N[C@@H](CC(N)=O)C(N)=O [VIP [D-Val5]] | 26.3 nM | 6.2 nM and 44.6 nM and 25.1 nM
CC[C@@H](C)[C@@H](NC(=O)[C@H](CO)NC(=O)[C@H](CC(N)=O)NC(=O)[C@H](CC(C)C)NC(=O)[C@H](Cc1ccc(O)cc1)NC(=O)[C@H](CCCCN)NC(=O)[C@H](CCCCN)NC(=O)[C@@H](NC(=O)[C@H](C)NC(=O)[C@H](CCSC)NC(=O)[C@H](CCC(N)=O)NC(=O)[C@H](CCCCN)NC(=O)[C@H](CCCN=C(N)N)NC(=O)[C@H](CC(C)C)NC(=O)[C@H](CCCN=C(N)N)NC(=O)[C@@H](NC(=O)[C@H](Cc1ccc(O)cc1)NC(=O)[C@H](CC(N)=O)NC(=O)[C@H](CC(=O)O)NC(=O)[C@@H](NC(=O)[C@H](Cc1ccccc1)NC(=O)[C@@H](NC(=O)[C@H](C)NC(=O)[C@H](CC(=O)O)NC(=O)[C@H](CO)NC(=O)[C@@H](N)Cc1cnc[nH]1)C(C)C)[C@@H](C)O)[C@@H](C)O)C(C)C)C(=O)N[C@@H](CC(C)C)C(=O)N[C@@H](CC(N)=O)C(N)=O [VIP [D-Ile26]] | 72.4 nM | 38.2 nM and 48.9 nM and 33.2 nM
H-HSDAVFTDNYTRLRKQMAVKKYLASILN-NH2 [VIP Ala24] | 8.9 nM | 
CC[C@H](C)[C@H](NC(=O)[C@H](CO)NC(=O)[C@H](CC(N)=O)NC(=O)[C@H](CC(C)C)NC(=O)[C@H](Cc1ccc(O)cc1)NC(=O)[C@H](CCCCN)NC(=O)[C@H](CCCCN)NC(=O)[C@@H](NC(=O)[C@H](C)NC(=O)[C@H](CCSC)NC(=O)[C@H](CCC(N)=O)NC(=O)[C@H](CCCCN)NC(=O)[C@H](CCCN=C(N)N)NC(=O)[C@H](CC(C)C)NC(=O)[C@H](CCCN=C(N)N)NC(=O)[C@@H](NC(=O)[C@H](Cc1ccc(O)cc1)NC(=O)[C@H](CC(N)=O)NC(=O)[C@H](CC(=O)O)NC(=O)[C@@H](NC(=O)[C@H](Cc1ccccc1)NC(=O)[C@@H](NC(=O)[C@H](C)NC(=O)[C@H](CC(=O)O)NC(=O)[C@H](CO)NC(=O)[C@@H](N)Cc1cnc[nH]1)C(C)C)[C@@H](C)O)[C@@H](C)O)C(C)C)C(=O)N[C@H](CC(C)C)C(=O)N[C@@H](CC(N)=O)C(N)=O [VIP [D-Leu27]] | 5 nM | 
CC[C@H](C)[C@H](NC(=O)[C@H](CO)NC(=O)[C@H](CC(N)=O)NC(=O)[C@H](CC(C)C)NC(=O)[C@H](Cc1ccc(O)cc1)NC(=O)[C@H](CCCCN)NC(=O)[C@H](CCCCN)NC(=O)[C@@H](NC(=O)[C@H](C)NC(=O)[C@H](CCSC)NC(=O)[C@H](CCC(N)=O)NC(=O)[C@H](CCCCN)NC(=O)[C@H](CCCN=C(N)N)NC(=O)[C@H](CC(C)C)NC(=O)[C@H](CCCN=C(N)N)NC(=O)[C@@H](NC(=O)[C@H](Cc1ccc(O)cc1)NC(=O)[C@@H](CC(N)=O)NC(=O)[C@H](CC(=O)O)NC(=O)[C@@H](NC(=O)[C@H](Cc1ccccc1)NC(=O)[C@@H](NC(=O)[C@H](C)NC(=O)[C@H](CC(=O)O)NC(=O)[C@H](CO)NC(=O)[C@@H](N)Cc1cnc[nH]1)C(C)C)[C@@H](C)O)[C@@H](C)O)C(C)C)C(=O)N[C@@H](CC(C)C)C(=O)N[C@@H](CC(N)=O)C(N)=O [VIP [D-Asn9]] | 2.8 nM | 
H-HSDAAFTDNYTRLRKQMAVKKYLNSILN-NH2 [VIP Ala5] | 34.7 nM | 
CC[C@H](C)[C@H](NC(=O)[C@H](CO)NC(=O)[C@H](CC(N)=O)NC(=O)[C@H](CC(C)C)NC(=O)[C@H](Cc1ccc(O)cc1)NC(=O)[C@H](CCCCN)NC(=O)[C@H](CCCCN)NC(=O)[C@@H](NC(=O)[C@H](C)NC(=O)[C@@H](CCSC)NC(=O)[C@H](CCC(N)=O)NC(=O)[C@H](CCCCN)NC(=O)[C@H](CCCN=C(N)N)NC(=O)[C@H](CC(C)C)NC(=O)[C@H](CCCN=C(N)N)NC(=O)C(NC(=O)[C@H](Cc1ccc(O)cc1)NC(=O)[C@H](CC(N)=O)NC(=O)[C@H](CC(=O)O)NC(=O)[C@@H](NC(=O)[C@H](Cc1ccccc1)NC(=O)[C@@H](NC(=O)[C@H](C)NC(=O)[C@H](CC(=O)O)NC(=O)[C@H](CO)NC(=O)[C@@H](N)Cc1cnc[nH]1)C(C)C)[C@@H](C)O)[C@@H](C)O)C(C)C)C(=O)N[C@@H](CC(C)C)C(=O)N[C@@H](CC(N)=O)C(N)=O (stereo partly drawn) [VIP [D- Met 17]] | 33.1 nM | 
